ChEMBL document CHEMBL4651402, “Screening of ~5500 FDA-approved drugs and clinical candidates for anti-SARS-CoV-2 activity” (2021)
Structures can show the parent of a compound that is named as a salt.

System: SARS-CoV-2
Assay: microbe, parasite or virus in culture
Conditions: Severe acute respiratory syndrome coronavirus 2, Vero C1008, 48 h

| Compound | IC50 [µM] | IC50 (read-out: pIC50 (converted)) [µM] |
| --- | --- | --- |
| CO[C@H]1/C=C/O[C@@]2(C)Oc3c(C)c(O)c4c(O)c(c(/C=N/N5CCN(C)CC5)c(O)c4c3C2=O)NC(=O)/C(C)=C\C=C\[C@H](C)[C@H](O)[C@@H](C)[C@@H](O)[C@@H](C)[C@H](OC(C)=O)[C@@H]1C [RIFAMPIN] | > 20 | > 20 |
| COc1cc(OC)c(/C=C/S(=O)(=O)Cc2ccc(OC)c(NCC(=O)O)c2)c(OC)c1 [RIGOSERTIB] | > 20 | > 20 |
| CN1CCN(C2=Cc3cc(Cl)ccc3/C(=C/C#N)c3ccccc32)CC1 [RILAPINE] | > 20 | > 20 |
| CS(=O)(=O)CCCn1c(Cn2c(=O)n(CC(F)(F)F)c3ccncc32)cc2cc(Cl)ccc21 [RILEMATOVIR] | > 20 | > 20 |
| C1COC(NC(C2CC2)C2CC2)=N1 [RILMENIDINE] | > 20 | > 20 |
| Nc1nc2ccc(OC(F)(F)F)cc2s1 [RILUZOLE] | > 20 | > 20 |
| CC(N)C12CC3CC(CC(C3)C1)C2 (configuration not stated) [RIMANTADINE] | > 20 | > 20 |
| N[C@@H]1c2cccnc2[C@H](OC(=O)N2CCC(n3c(=O)[nH]c4ncccc43)CC2)CC[C@H]1c1cccc(F)c1F [RIMEGEPANT] | > 20 | > 20 |
| CCC(=O)[C@@]1(C)[C@H](C)C[C@H]2[C@@H]3CCC4=CC(=O)C=C[C@]4(C)[C@H]3[C@@H](O)C[C@@]21C [RIMEXOLONE] | > 20 | > 20 |
| Oc1ccc(C(O)C2CCCCN2)cc1O (configuration not stated) [RIMITEROL] | > 20 | > 20 |
| Cc1c(C(=O)NN2CCCCC2)nn(-c2ccc(Cl)cc2Cl)c1-c1ccc(Cl)cc1 [RIMONABANT] | > 20 | > 20 |
| O=P(O)(O)C(O)(Cc1cccnc1)P(=O)(O)O [RISEDRONIC ACID] | > 20 | > 20 |
| Cc1ccc(COC(=O)N2CC[C@H](CNc3ncccn3)[C@H](F)C2)cc1 [RISLENEMDAZ] | > 20 | > 20 |
| CCCOC(=O)c1ccc(N)cc1 [RISOCAINE] | > 20 | > 20 |
| Cc1nc2n(c(=O)c1CCN1CCC(c3noc4cc(F)ccc34)CC1)CCCC2 [RISPERIDONE] | > 20 | > 20 |
| Cc1nc2sccn2c(=O)c1CCN1CCC(=C(c2ccc(F)cc2)c2ccc(F)cc2)CC1 [RITANSERIN] | > 20 | > 20 |
| C=CC(=O)N1C[C@H](Nc2ncnc3[nH]ccc23)CC[C@@H]1C [RITLECITINIB] | > 20 | > 20 |
| CC(NCCc1ccc(O)cc1)C(O)c1ccc(O)cc1 (configuration not stated) [RITODRINE HYDROCHLORIDE] | > 20 | > 20 |
| CC(C)c1nc(CN(C)C(=O)N[C@H](C(=O)N[C@@H](Cc2ccccc2)C[C@H](O)[C@H](Cc2ccccc2)NC(=O)OCc2cncs2)C(C)C)cs1 [RITONAVIR] | > 50.1 | > 50.1 |
| CCN(C)C(=O)Oc1cccc([C@H](C)N(C)C)c1 [RIVASTIGMINE] | > 20 | > 20 |
| COCc1cccc(C[C@H](O)/C=C/[C@H]2[C@H](O)CC(=O)[C@@H]2CCSCCCC(=O)OC)c1 [RIVENPROST] | > 20 | > 20 |
| N#CC1(c2ccc(NC(=O)c3cccnc3NCc3ccncc3)cc2)CCCC1 [RIVOCERANIB] | > 20 | > 20 |
| CN(C)CCc1c[nH]c2ccc(Cn3cncn3)cc12 [RIZATRIPTAN] | > 20 | > 20 |
| [N-]=[N+]=N[C@]1(CO)O[C@@H](n2ccc(N)nc2=O)[C@@H](F)[C@@H]1O [RO-0622] | > 20 | > 20 |

| Compound | IC50 [µM] | IC50 (read-out: pIC50 (converted)) [µM] |
| --- | --- | --- |
| CCCCOc1cc(CC2CNC(=O)N2)ccc1OC (configuration not stated) [RO-201724] | > 20 | > 20 |
| C=CC(=O)Nc1cccc(Nc2nc(Nc3ccc(N4CCN(C(C)=O)CC4)cc3OC)ncc2C(F)(F)F)c1 [ROCILETINIB] | > 20 | > 20 |
| CS(=O)(=O)c1ccc(C2=C(c3ccccc3)C(=O)OC2)cc1 [ROFECOXIB] | > 20 | > 20 |
| O=C(Nc1c(Cl)cncc1Cl)c1ccc(OC(F)F)c(OCC2CC2)c1 [ROFLUMILAST] | > 20 | > 20 |
| COCc1c(-c2cc3cc(C)cc(OC)c3s2)c2c(N)ncnn2c1CN1CCNC(=O)C1 [ROGARATINIB] | > 20 | > 20 |
| C[C@@H](OC[C@@]1(c2ccccc2)CC[C@]2(CCC(=O)N2)CN1)c1cc(C(F)(F)F)cc(C(F)(F)F)c1 [ROLAPITANT] | > 20 | > 20 |
| COc1ccc(C2CNC(=O)C2)cc1OC1CCCC1 (configuration not stated) [ROLIPRAM] | > 20 | > 20 |
| Cn1c([N+](=O)[O-])cnc1COC(N)=O [RONIDAZOLE] | > 20 | > 20 |
| CCCN(CCC)CCc1cccc2c1CC(=O)N2 [ROPINIROLE] | > 20 | > 20 |
| CN(C(=O)c1c(O)c2ccccc2n(C)c1=O)c1ccccc1 [ROQUINIMEX] | > 20 | > 20 |
| CN(CCOc1ccc(CC2SC(=O)NC2=O)cc1)c1ccccn1 (configuration not stated) [ROSIGLITAZONE] | > 20 | > 20 |
| O=C(/C=C/c1ccc(O)c(O)c1)O[C@H](Cc1ccc(O)c(O)c1)C(=O)O [ROSMARINIC ACID] | > 20 | > 20 |
| CCn1cc(C(=O)O)c(=O)c2ccc(-c3ccncc3)cc21 [ROSOXACIN] | > 20 | > 20 |
| C[C@]12CC[C@H](O)C[C@H]1CC[C@@H]1[C@@H]2CC[C@]2(C)[C@@](O)(c3ccoc3)CC[C@]12O [ROSTAFUROXIN] | > 20 | > 20 |
| CN(C)CCO[C@@H](c1ccc(Cl)cc1)c1ccccn1 [ROTOXAMINE] | > 20 | > 20 |
| Cc1nc(C(=O)NCC(=O)O)c(O)c2ccc(Oc3ccccc3)cc12 [ROXADUSTAT] | > 20 | > 20 |
| O=[N+]([O-])c1cc([As](=O)(O)O)ccc1O [ROXARSONE] | > 20 | > 20 |
| Oc1ccc2[nH]cc(CCCCN3CC=C(c4ccccc4)CC3)c2c1 [ROXINDOLE] | > 20 | > 20 |
| CC[C@H]1OC(=O)[C@H](C)[C@@H](O[C@H]2C[C@@](C)(OC)[C@@H](O)[C@H](C)O2)[C@H](C)[C@@H](O[C@@H]2O[C@H](C)C[C@H](N(C)C)[C@H]2O)[C@](C)(O)C[C@@H](C)/C(=N\OCOCCOC)[C@H](C)[C@@H](O)[C@]1(C)O [ROXITHROMYCIN] | > 20 | > 20 |
| CN1C(=O)CC2(CCN(CCCC(=O)c3ccc(F)cc3)CC2)C1=O [ROXOPERONE] | > 20 | > 20 |
| CC[C@@]1(O)C(=O)OCc2c1cc1n(c2=O)Cc2cc3c([N+](=O)[O-])cccc3nc2-1 [RUBITECAN] | > 20 | > 20 |
| CN(C)C[C@@H]1CCn2cc(c3ccccc32)C2=C(C(=O)NC2=O)c2cn(c3ccccc23)CCO1 [RUBOXISTAURIN] | > 20 | > 20 |
| CNCc1ccc(-c2[nH]c3cc(F)cc4c3c2CCNC4=O)cc1 [RUCAPARIB] | > 20 | > 20 |
| NC(=O)c1cn(Cc2c(F)cccc2F)nn1 [RUFINAMIDE] | > 20 | > 20 |

| Compound | IC50 [µM] | IC50 (read-out: pIC50 (converted)) [µM] |
| --- | --- | --- |
| N#CC[C@H](C1CCCC1)n1cc(-c2ncnc3[nH]ccc23)cn1 [RUXOLITINIB] | > 20 | > 20 |
| CCOC(=O)c1cncn1[C@@H](C)c1ccccc1 [S-ETOMIDATE] | > 20 | > 20 |
| CN(c1nc2ccccc2s1)C1CCN(CC(O)COc2ccc(F)cc2)CC1 (configuration not stated) [SABELUZOLE] | > 20 | > 20 |
| O=C1NS(=O)(=O)c2ccccc21 [SACCHARIN] | > 20 | > 20 |
| CCOC(=O)[C@H](C)C[C@@H](Cc1ccc(-c2ccccc2)cc1)NC(=O)CCC(=O)O [SACUBITRIL] | > 20 | > 20 |
| OCC(O)Cc1ccc2c(c1)OCO2 (configuration not stated) [SAFROLGLYCOL] | > 20 | > 20 |
| CC(=O)NC(=O)c1ccccc1O [SALACETAMIDE] | > 20 | > 20 |
| OCc1ccccc1O[C@@H]1O[C@H](CO)[C@@H](O)[C@H](O)[C@H]1O [SALICIN] | > 20 | > 20 |
| NC(=O)c1ccccc1O [SALICYLAMIDE] | > 20 | > 20 |
| O=C(Nc1ccccc1)c1ccccc1O [SALICYLANILIDE] | > 20 | > 20 |
| O=C(O)c1ccccc1O [SALICYLIC ACID] | > 20 | > 20 |
| O=C(N/N=C/c1ccccc1O)c1ccncc1 [SALINAZID] | > 20 | > 20 |
| CC(C)=CCC/C(C)=C/CC/C(C)=C/CSc1ccccc1C(=O)O [SALIRASIB] | > 20 | > 20 |
| O=C(Oc1ccccc1C(=O)O)c1ccccc1O [SALSALATE] | > 20 | > 20 |
| COc1cc2c(cc1O)CCNC2C (configuration not stated) [SALSOLINE] | > 20 | > 20 |
| CC1=C2[C@H]3OC(=O)[C@@H](C)[C@@H]3CC[C@@]2(C)C=CC1=O [SANTONIN] | > 20 | > 20 |
| CC(C)n1nc(-c2ccc3oc(N)nc3c2)c2c(N)ncnc21 [SAPANISERTIB] | > 20 | > 20 |
| CNC(=O)CN1CCC(Oc2cc3c(Nc4cccc(Cl)c4F)ncnc3cc2OC)CC1 [SAPITINIB] | > 20 | > 20 |
| C[C@H](O)[C@H](O)[C@H]1CNc2nc(N)[nH]c(=O)c2N1 [SAPROPTERIN] | > 20 | > 20 |
| CN1CCN(CCOc2cc(OC3CCOCC3)c3c(Nc4c(Cl)ccc5c4OCO5)ncnc3c2)CC1 [SARACATINIB] | > 20 | > 20 |
| O=C(O)c1cn(-c2ccc(F)cc2)c2cc(N3CCNCC3)c(F)cc2c1=O [SARAFLOXACIN] | > 20 | > 20 |
| CNCC(=O)O [SARCOSINE] | > 20 | > 20 |
| CON(C)Cc1ccc(O)c2c1C[C@H]1C[C@H]3[C@H](N(C)C)C(O)=C(C(N)=O)C(=O)[C@@]3(O)C(O)=C1C2=O [SARECYCLINE] | > 20 | > 20 |
